Measured values: US20230146455A1, “TREATMENT OF INFLAMMATORY DISEASES WITH PEPTIDES AND PHARMACEUTICAL COMPOSITIONS” (Yuyu Pharma, Inc., priority 2020, published 2023)
“And” between values parts separate entries of the source, which are not always exact repeats. Identical values can stand only once. Where a SMILES comes first, the peptide text is derived from it. [ ]: non-standard residue; d: D form. Hyp = O=C(O)[C@@H]1C[C@@H](O)CN1

System: VEGF-A
Experiment: Example 9 Luminex, LPS hPBMCs: VEGF-A
Assay type: cell-based, human
Conditions: for conc/live cell / Concentration: Bead VEGF-A; for Concentration: dilution 2.0
Protocol: Treatment Human PBMCs were pretreated with YY-101, YDE-011 and YDE-043 or reference compound; Xiidra® at various concentration (ranging from 1 nM to 100 uM) for 2 h before stimulation. An equal volume of 0.5% DMSO was used as a vehicle control. Then, the cells were treated with LPS at 5 ug/ml. The supernatants from treated cells were harvested at 24 h and placed in a 96 well for Luminex cytokine & chemokine profiling using a Luminex 200 multiplex assay (Luminex; R&D system, USA).
The main study arm with triplicate wells per group in a 24-well plate: • 1. Blank • 2. PBMC: 0.5% DMSO • 3. PBMC+LPS (5 ug/ml) • 4. PBMC+YY-101 100 uM • 5. PBMC+YY-101 10 uM • 6. PBMC+YY-101 1 uM • 7. PBMC+YY-101 0.1 uM • 8. PBMC+YY-101 0.01 uM • 9. PBMC+LPS (5 ug/ml)+Xiidra®100 uM • 10. PBMC+LPS (5 ug/ml)+Xiidra® 10 uM • 11. PBMC+LPS (5 ug/ml)+Xiidra® 1 uM • 12. PBMC+LPS (5 ug/ml)+Xiidra®0.1 uM • 13. PBMC+LPS (5 ug/ml)+Xiidra®0.01 uM • 14. PBMC+LPS (5 ug/ml)+Xiidra®0.001 uM • 15. PBMC+LPS (5 ug/ml)+YY-101 100 uM • 16. PBMC+LPS (5 ug/ml)+YY-101 10 uM • 17. PBMC+LPS (5 ug/ml)+YY-101 1 uM • 18. PBMC+LPS (5 ug/ml)+YY-101 0.1 uM • 19. PBMC+LPS (5 ug/ml)+YY-101 0.01 uM • 20. PBMC+LPS (5 ug/ml)+YY-101 0.001 uM • 21. PBMC+LPS (5 ug/ml)+YDE-011 100 uM • 22. PBMC+LPS (5 ug/ml)+YDE-011 10 uM • 23. PBMC+LPS (5 ug/ml)+YDE-011 1 uM • 24. PBMC+LPS (5 ug/ml)+YDE-011 0.1 uM • 25. PBMC+LPS (5 ug/ml)+YDE-011 0.01 uM • 26. PBMC+LPS (5 ug/ml)+YDE-011 0.001 uM • 27. PBMC+LPS (5 ug/ml)+YDE-043 100 uM • 28. PBMC+LPS (5 ug/ml)+YDE-043 10 uM • 29. PBMC+LPS (5 ug/ml)+YDE-043 1 uM • 30. PBMC+LPS (5 ug/ml)+YDE-043 0.1 uM • 31. PBMC+LPS (5 ug/ml)+YDE-043 0.01 uM • 32. PBMC+LPS (5 ug/ml)+YDE-043 0.001 uM
Multiplex assay was used to measure 30 cytokines and chemokines. The 1:2, 1:10 and 1:200 diluted cell supernatant and serial dilution of the standard were dispensed into a 96 well plate at 50 ul/well. Then, the pre-mixed cocktail of antibody-coated magnetic beads was dispensed at 50 ul/well and incubated at room temperature for 2 h in a horizontal orbital microplate shaker at 800±500 rpm. The beads were washed using a magnetic device to prevent loss. The biotin-antibody was dispensed in 50 ul of each well and incubated at room temperature for 1 h in a shaker at 800±500 rpm. After washing, streptavidin-PE was added at 50 ul/well and incubated at room temperature for 30 min in a shaker under the same conditions. Finally, after washing, wash buffer (100 ul/well) was added to the plate and incubated in a shaker for 2 min. The Luminex™ 200 setting were set according to the manufacturer's protocol. The data was calculated with a standard five-parameter logistic nonlinear regression analysis of the data (xPonent software 4.2, USA). The levels of cytokine/chemokine are normalized to the live cell counts (1×10^5 cells/mL) and presented as concentrations per mL (pg/mL or ng/mL).

[1] = PBMC + LPS(5 ug/ml) + test article 1 uM, Mean
[2] = PBMC + LPS(5 ug/ml) + test article 1 uM, single replicates
[3] = PBMC + LPS(5 ug/ml) + test article 10 uM, Mean
[4] = PBMC + LPS(5 ug/ml) + test article 10 uM, single replicates
[5] = PBMC + LPS(5 ug/ml) + test article 100 uM, Mean
[6] = PBMC + LPS(5 ug/ml) + test article 100 uM, single replicates
[7] = PBMC + LPS(5 ug/ml) + test article 0.001 uM, Mean
[8] = PBMC + LPS(5 ug/ml) + test article 0.001 uM, single replicates
[9] = PBMC + LPS(5 ug/ml) + test article 0.01 uM, Mean
[10] = PBMC + LPS(5 ug/ml) + test article 0.01 uM, single replicates
[11] = PBMC + LPS(5 ug/ml) + test article 0.1 uM, Mean
[12] = PBMC + LPS(5 ug/ml) + test article 0.1 uM, single replicates

For CC(C)C[C@H](NC(=O)CNC(=O)[C@H](CC(C)C)NC(=O)[C@H](CCC(N)=O)NC(=O)CNC(=O)[C@@H]1C[C@@H](O)CN1)C(=O)N[C@@H](C)C(=O)NCC(=O)N1CCC[C@H]1C(=O)N[C@@H](CCCCN)C(=O)O [YDE-011] (H-[Hyp]GQLGLAGPK-OH), the conc/live cell [1] was 0.3 pg/10^5, the Concentration [1] was 2.8 pg/mL and the Concentration [2] was 0.6 pg/mL. The conc/live cell [2] was 0.0 pg/10^5 and 0.1 pg/10^5, the conc/live cell [3] was 0.3 pg/10^5 and the Concentration [3] was 2.1 pg/mL. For the same compound, the Concentration [4] was 3.6 pg/mL and 0.6 pg/mL, the conc/live cell [4] was 0.7 pg/10^5 and 0.0 pg/10^5 and 0.1 pg/10^5 and the conc/live cell [5] was 0.0 pg/10^5. The conc/live cell [6] was 0.0 pg/10^5, the “Concentration, Bead name: VEGF-A” value [7] was 4.3 pg/mL and the “MFI, Bead name: VEGF-A” value [7] was −0.4. For the same compound, the “conc/live cell, Bead name: VEGF-A” value [7] was 0.8 pg/10^5, the “Concentration, Bead name: VEGF-A” value [8] was 6.1 pg/ml (2×) and 0.6 pg/ml and the “MFI, Bead name: VEGF-A” value [8] was 0.3 (2×) and −1.8. For the same compound, the “conc/live cell, Bead name: VEGF-A” value [8] was 1.4 pg/10^5 and 0.1 pg/10^5 and 1.1 pg/10^5, the “Concentration, Bead name: VEGF-A” value [9] was 2.8 pg/mL and the “MFI, Bead name: VEGF-A” value [9] was −1.6. For the same compound, the “conc/live cell, Bead name: VEGF-A” value [9] was 0.3 pg/10^5, the “Concentration, Bead name: VEGF-A” value [10] was 4.9 pg/mL and 0.6 pg/mL and the “MFI, Bead name: VEGF-A” value [10] was −0.3 and −2.8 and −1.8. For the same compound, the “conc/live cell, Bead name: VEGF-A” value [10] was 0.8 pg/10^5 and 0.0 pg/10^5 and 0.1 pg/10^5, the “Concentration, Bead name: VEGF-A” value [11] was 0.6 pg/mL and the “MFI, Bead name: VEGF-A” value [11] was −2.1. For the same compound, the “conc/live cell, Bead name: VEGF-A” value [11] was 0.1 pg/10^5, the “Concentration, Bead name: VEGF-A” value [12] was 0.6 pg/mL and the “MFI, Bead name: VEGF-A” value [12] was −1.8 (2×) and −2.8. For the same compound, the “conc/live cell, Bead name: VEGF-A” value [12] was 0.1 pg/10^5 (2×) and 0.0 pg/10^5, the “Concentration, Bead name: VEGF-A” value [2] was 4.9 pg/mL and the “MFI, Bead name: VEGF-A” value [2] was −0.3. The “conc/live cell, Bead name: VEGF-A” value [2] was 0.9 pg/10^5.
CC(C)C[C@H](NC(=O)[C@H](CCC(N)=O)NC(=O)CNC(=O)[C@@H]1C[C@@H](O)CN1)C(=O)NCC(=O)O [YDE-043] (H-[Hyp]GQLG-OH; N-terminus and C-terminus assumed) showed a conc/live cell [7] of 0.7 pg/10^5, a Concentration [7] of 3.6 pg/mL and a Concentration [8] of 3.6 pg/mL. For the same compound, the conc/live cell [8] was 0.8 pg/10^5 (2×) and 0.6 pg/10^5, the conc/live cell [9] was 0.1 pg/10^5 and the Concentration [9] was 0.6 pg/mL. It also gave a Concentration [10] of 0.6 pg/mL, a conc/live cell [10] of 0.1 pg/10^5 and a conc/live cell [11] of 0.1 pg/10^5. For the same compound, the Concentration [11] was 0.6 pg/mL, the Concentration [12] was 0.6 pg/mL and the conc/live cell [12] was 0.1 pg/10^5. For the same compound, the conc/live cell [1] was 0.8 pg/10^5, the Concentration [1] was 4.4 pg/mL and the Concentration [2] was 6.1 pg/ml and 3.6 pg/ml (2×). The conc/live cell [2] was 1.1 pg/10^5 and 0.7 pg/10^5 (2×), the conc/live cell [3] was 0.7 pg/10^5 and the Concentration [3] was 5.5 pg/mL. For the same compound, the Concentration [4] was 6.1 pg/mL and 4.9 pg/mL, the conc/live cell [4] was 0.0 pg/10^5 and 1.1 pg/10^5 and 0.9 pg/10^5 and the conc/live cell [5] was 0.4 pg/10^5. The Concentration [5] was 4.9 pg/mL, the Concentration [6] was 4.9 pg/mL and the conc/live cell [6] was 0.8 pg/10^5 and 0.0 pg/10^5.
